Assay: xn = mol fraction of the nth substance listed
Settings: 101 kPa, Liquid

CCOC(=O)CC(=O)OCC [diethyl 1,3-propanedioate] + CCCO
mass density [kg/m3]
Settings	288.15 K	298.15 K	313.15 K	328.15 K
x1 = 0.1001	854.156	845.431	832.128	818.439
x1 = 0.2	891.858	882.638	868.577	854.173
x1 = 0.2999	923.874	914.254	899.629	884.69
x1 = 0.3501	938.229	928.438	913.567	898.431
x1 = 0.4001	951.433	941.51	926.45	911.123
x1 = 0.4499	963.765	953.71	938.475	922.986
x1 = 0.4999	975.313	965.148	949.737	934.134
x1 = 0.5446	985.016	974.758	959.257	943.524
x1 = 0.5997	996.235	985.888	970.245	954.437
x1 = 0.7003	1014.96	1004.46	988.638	972.67
x1 = 0.7998	1031.53	1020.94	1004.99	988.923
x1 = 0.8997	1046.55	1035.87	1019.84	1003.72
x1 = 1	1060.33	1049.6	1033.5	1017.34

CCOC(=O)CC(=O)OCC [diethyl 1,3-propanedioate] + CCO
mass density [kg/m3]
Settings	288.15 K	298.15 K	313.15 K	328.15 K
x1 = 0.05	826.264	817.293	803.619	789.558
x1 = 0.0999	853.923	844.646	830.505	815.983
x1 = 0.1001	854.013	844.731	830.589	816.063
x1 = 0.15	878.005	868.468	853.941	839.005
x1 = 0.2001	899.1	889.366	874.536	859.351
x1 = 0.3	934.365	924.309	909.007	893.394
x1 = 0.4	962.806	952.511	936.881	920.983
x1 = 0.4498	974.929	964.533	948.801	932.802
x1 = 0.4999	986.037	975.577	959.71	943.637
x1 = 0.5501	996.293	985.767	969.837	953.695
x1 = 0.6001	1005.6	995.034	979.034	962.847
x1 = 0.6453	1013.44	1002.82	986.788	970.577
x1 = 0.6997	1022.16	1011.52	995.442	979.211
x1 = 0.7497	1029.61	1018.93	1002.83	986.588
x1 = 0.8496	1043.02	1032.31	1016.2	999.969
x1 = 0.8995	1049.08	1038.36	1022.25	1006.06
x1 = 1	1060.33	1049.6	1033.5	1017.34

CCOC(=O)CC(=O)OCC [diethyl 1,3-propanedioate] + CO
mass density [kg/m3]
Settings	288.15 K	298.15 K	313.15 K	328.15 K
x1 = 0.05	841.286	831.536	816.754	801.691
x1 = 0.1	876.23	866.252	851.13	835.697
x1 = 0.1501	904.185	894.037	878.631	862.956
x1 = 0.2001	926.962	916.671	901.091	885.223
x1 = 0.2501	945.901	935.504	919.763	903.75
x1 = 0.3001	961.96	951.502	935.636	919.517
x1 = 0.35	975.573	965.04	949.084	932.879
x1 = 0.4001	987.417	976.822	960.784	944.523
x1 = 0.4503	997.752	987.12	971.04	954.725
x1 = 0.5004	1006.9	996.235	980.1	963.763
x1 = 0.5497	1014.88	1004.18	988.016	971.649
x1 = 0.6	1022.04	1011.32	995.132	978.761
x1 = 0.6495	1028.48	1017.74	1001.52	985.159
x1 = 0.6997	1034.33	1023.59	1007.37	991.006
x1 = 0.7978	1044.36	1033.61	1017.38	1001.07
x1 = 0.9009	1053.15	1042.39	1026.22	1009.98
x1 = 1	1060.33	1049.6	1033.5	1017.34

CCO [ethanol] + CCOC(=O)CC(=O)OCC
x2 = 0
Settings	mass density [kg/m3]
288.15 K	794.044
298.15 K	785.489
313.15 K	772.42
328.15 K	758.958

CO [methanol] + CCOC(=O)CC(=O)OCC
x2 = 0
Settings	mass density [kg/m3]
288.15 K	796.406
298.15 K	786.987
313.15 K	772.74
328.15 K	758.201

CCCCCO [pentan-1-ol] + CCOC(=O)CC(=O)OCC
x2 = 0
Settings	mass density [kg/m3]
288.15 K	818.801
298.15 K	811.465
313.15 K	800.264
328.15 K	788.737

CCCO [propan-1-ol] + CCOC(=O)CC(=O)OCC
x2 = 0
Settings	mass density [kg/m3]
288.15 K	809.009
298.15 K	800.973
313.15 K	788.687
328.15 K	775.974
